One may read the inhibition as the change of the read-out against control, counted positive when it falls. A word on the pIC50: it is the IC50 on a negative log10 scale, so that one unit is a factor of ten. A lower pIC50 goes with a large IC50. Usually pKd stands for the Kd on a negative log10 scale, so that one unit is a factor of ten.

pIC50, pKd: −log10 of the molar value. Activity calls are given as the source filed them. The calls are words filed in the database; no cut-off is given here.

The target in data set [1] is T1, Matrix metalloproteinase-14 (Homo sapiens, UniProt P50281). Briefly: Inhibition of MMP-14 (unknown origin) using 5-FAM-TDVPNGFHVS (QXL520)-NH2 as fluorogenic substrate at 12.5 to 200 uM preincubated for 10 mins followed by substrate addition and measured for 50 mins by microplate reader assay. As to conditions: dose 12.5-200 µM, time 60.0 min.
Data set [2] concerns the target 72 kDa type IV collagenase (Mus musculus) (UniProt P33434). Briefly: Inhibition of MMP-2 in mouse fibroblast assessed as reduction in concanavalin-induced MMP-2 activity by measuring gelatin digestion incubated for 24 hrs by SDS-PAGE gel electrophoresis based gelatin zymography analysis. It counts as cell-based.
Data set [3] has as its target T1, Matrix metalloproteinase-14. Briefly: Inhibition of MMP-14 (unknown origin) using 5-FAM-TDVPNGFHVS (QXL520)-NH2 as fluorogenic substrate preincubated for 10 mins followed by substrate addition and measured for 50 mins by microplate reader assay.
The target is the same in data set [4]. Briefly: Inhibition of MMP-14 (unknown origin) using 5-FAM-TDVPNGFHVS (QXL520)-NH2 as fluorogenic substrate at 47.6 uM preincubated for 10 mins followed by substrate addition by primary HTS analysis relative to control.
The nature of data set [5]: Cytotoxicity against human HUVEC cells assessed as cell viability upto 100 uM incubated for 4 hrs by MTS assay. The format is toxicity, cell-based. The following applies: read-out: Activity. (Tetrazolium dyes change colour on reduction, which living cells bring about.)
Data set [6] addresses T2, Matrilysin (Homo sapiens) (UniProt P09237).
T2 sequence (whole entry): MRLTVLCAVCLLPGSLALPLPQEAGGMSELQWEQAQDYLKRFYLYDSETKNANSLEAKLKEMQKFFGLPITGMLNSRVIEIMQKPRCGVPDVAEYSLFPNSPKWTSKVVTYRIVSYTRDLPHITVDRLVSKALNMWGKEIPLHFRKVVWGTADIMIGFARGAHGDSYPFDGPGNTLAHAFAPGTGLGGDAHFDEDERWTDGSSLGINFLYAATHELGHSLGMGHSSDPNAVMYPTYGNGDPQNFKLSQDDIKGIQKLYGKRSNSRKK
Briefly: Inhibition of MMP-7 (unknown origin) using QXL520-gamma-Abu-Pro-Cha-Abu-Smc-His-Ala-Dab(5-FAM)-Ala-Lys-NH2 as fluorogenic substrate at 1 to 100 uM preincubated for 10 mins followed by substrate addition and measured for 25 mins by microplate reader assay. As to conditions: dose 1-100 µM, time 35.0 min.

In data set [7] the target is T1, Matrix metalloproteinase-14. Kind of data set: Binding affinity to […] sensor chip immobilized MMP-14 catalytic domain (unknown origin) assessed as equilibrium dissociation constant by surface plasmon resonance analysis. (In general: In SPR one partner is held on a chip, and binding of the other changes the refractive index at the surface.)
For data set [8], the target named is T3, Matrix metalloproteinase-9 (Homo sapiens, UniProt P14780). Briefly: Inhibition of MMP-9 (unknown origin) using QXL520-gamma-Abu-Pro-Cha-Abu-Smc-His-Ala-Dab(5-FAM)-Ala-Lys-NH2 as fluorogenic substrate preincubated for 10 mins followed by substrate addition and measured for 25 mins by microplate reader assay.
T3 sequence (P14780 whole entry): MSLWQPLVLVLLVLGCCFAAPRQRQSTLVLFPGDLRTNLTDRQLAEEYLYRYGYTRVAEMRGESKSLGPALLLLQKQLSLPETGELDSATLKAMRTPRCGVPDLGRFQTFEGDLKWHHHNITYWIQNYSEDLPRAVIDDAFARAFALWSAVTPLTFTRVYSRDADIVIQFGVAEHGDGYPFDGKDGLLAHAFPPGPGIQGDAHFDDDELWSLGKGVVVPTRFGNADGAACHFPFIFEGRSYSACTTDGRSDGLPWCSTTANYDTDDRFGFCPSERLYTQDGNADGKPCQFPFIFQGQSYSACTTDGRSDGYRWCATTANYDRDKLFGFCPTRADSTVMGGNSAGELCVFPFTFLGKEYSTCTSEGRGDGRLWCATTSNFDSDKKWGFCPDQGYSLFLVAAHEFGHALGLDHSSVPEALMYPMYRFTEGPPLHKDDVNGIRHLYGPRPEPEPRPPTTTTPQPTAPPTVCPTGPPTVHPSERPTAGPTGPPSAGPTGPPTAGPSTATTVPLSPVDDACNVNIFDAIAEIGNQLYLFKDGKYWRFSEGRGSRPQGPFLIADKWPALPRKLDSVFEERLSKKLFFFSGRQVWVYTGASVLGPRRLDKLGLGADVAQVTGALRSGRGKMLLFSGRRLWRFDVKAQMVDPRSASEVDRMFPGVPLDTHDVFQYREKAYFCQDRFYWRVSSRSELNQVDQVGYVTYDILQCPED
In data set [9] the target is 72 kDa type IV collagenase (Homo sapiens) (UniProt P08253). Kind of data set: Inhibition of MMP-2 (unknown origin) using QXL520-gamma-Abu-Pro-Cha-Abu-Smc-His-Ala-Dab(5-FAM)-Ala-Lys-NH2 as fluorogenic substrate at 1 to 100 uM preincubated for 10 mins followed by substrate addition and measured for 25 mins by microplate reader assay. As to conditions: dose 1-100 µM, time 35.0 min.
Sequence of 72 kDa type IV collagenase (Homo sapiens) (P08253 110-660 limits assumed): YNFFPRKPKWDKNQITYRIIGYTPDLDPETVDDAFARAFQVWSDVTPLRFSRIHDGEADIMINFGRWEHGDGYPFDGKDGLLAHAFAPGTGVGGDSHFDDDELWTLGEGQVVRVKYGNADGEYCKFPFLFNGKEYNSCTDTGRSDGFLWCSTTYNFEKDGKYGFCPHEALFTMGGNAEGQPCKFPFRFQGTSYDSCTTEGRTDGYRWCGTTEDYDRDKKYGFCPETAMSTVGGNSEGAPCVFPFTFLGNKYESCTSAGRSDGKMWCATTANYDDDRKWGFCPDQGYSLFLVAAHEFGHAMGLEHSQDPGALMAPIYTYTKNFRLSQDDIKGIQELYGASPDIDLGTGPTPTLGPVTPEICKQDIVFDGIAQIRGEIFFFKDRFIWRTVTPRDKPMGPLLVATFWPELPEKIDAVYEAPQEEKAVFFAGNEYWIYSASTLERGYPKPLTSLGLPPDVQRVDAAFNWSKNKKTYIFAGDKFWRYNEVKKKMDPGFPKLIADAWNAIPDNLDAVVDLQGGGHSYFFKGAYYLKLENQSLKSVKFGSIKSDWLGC

Data set [10] deals with T4, Collagenase 3 (Homo sapiens, UniProt P45452). Kind of data set: Inhibition of MMP-13 (unknown origin) using QXL520-gamma-Abu-Pro-Cha-Abu-Smc-His-Ala-Dab(5-FAM)-Ala-Lys-NH2 as fluorogenic substrate preincubated for 10 mins followed by substrate addition and measured for 25 mins by microplate reader assay.
For data set [11], the target named is T3, Matrix metalloproteinase-9. Kind of data set: Inhibition of MMP-9 (unknown origin) using QXL520-gamma-Abu-Pro-Cha-Abu-Smc-His-Ala-Dab(5-FAM)-Ala-Lys-NH2 as fluorogenic substrate at 100 uM preincubated for 10 mins followed by substrate addition and measured for 25 mins by microplate reader assay. The following applies: time 35.0 min.
The target of data set [12] is T4, Collagenase 3. Kind of data set: Inhibition of MMP-13 (unknown origin) using QXL520-gamma-Abu-Pro-Cha-Abu-Smc-His-Ala-Dab(5-FAM)-Ala-Lys-NH2 as fluorogenic substrate at 1 to 100 uM preincubated for 10 mins followed by substrate addition and measured for 25 mins by microplate reader assay. The following applies: dose 1-100 µM, time 35.0 min.
Data set [13] concerns the target 72 kDa type IV collagenase (Homo sapiens) (UniProt P08253). Briefly: Inhibition of MMP-2 (unknown origin) using QXL520-gamma-Abu-Pro-Cha-Abu-Smc-His-Ala-Dab(5-FAM)-Ala-Lys-NH2 as fluorogenic substrate at 100 uM preincubated for 10 mins followed by substrate addition and measured for 25 mins by microplate reader assay. As to conditions: time 35.0 min.
In data set [14] the target is T3, Matrix metalloproteinase-9. Kind of data set: Inhibition of MMP-9 (unknown origin) using QXL520-gamma-Abu-Pro-Cha-Abu-Smc-His-Ala-Dab(5-FAM)-Ala-Lys-NH2 as fluorogenic substrate at 1 to 100 uM preincubated for 10 mins followed by substrate addition and measured for 25 mins by microplate reader assay. The following applies: dose 1-100 µM, time 35.0 min.
For data set [15], the target named is T4, Collagenase 3. Kind of data set: Inhibition of MMP-13 (unknown origin) using QXL520-gamma-Abu-Pro-Cha-Abu-Smc-His-Ala-Dab(5-FAM)-Ala-Lys-NH2 as fluorogenic substrate at 100 uM preincubated for 10 mins followed by substrate addition and measured for 25 mins by microplate reader assay. The following applies: time 35.0 min.
For data set [16], the target named is T2, Matrilysin (Homo sapiens). Kind of data set: Inhibition of MMP-7 (unknown origin) using QXL520-gamma-Abu-Pro-Cha-Abu-Smc-His-Ala-Dab(5-FAM)-Ala-Lys-NH2 as fluorogenic substrate at 100 uM preincubated for 10 mins followed by substrate addition and measured for 25 mins by microplate reader assay. As to conditions: time 35.0 min.

Sequence of 72 kDa type IV collagenase (Mus musculus) (P33434 whole entry): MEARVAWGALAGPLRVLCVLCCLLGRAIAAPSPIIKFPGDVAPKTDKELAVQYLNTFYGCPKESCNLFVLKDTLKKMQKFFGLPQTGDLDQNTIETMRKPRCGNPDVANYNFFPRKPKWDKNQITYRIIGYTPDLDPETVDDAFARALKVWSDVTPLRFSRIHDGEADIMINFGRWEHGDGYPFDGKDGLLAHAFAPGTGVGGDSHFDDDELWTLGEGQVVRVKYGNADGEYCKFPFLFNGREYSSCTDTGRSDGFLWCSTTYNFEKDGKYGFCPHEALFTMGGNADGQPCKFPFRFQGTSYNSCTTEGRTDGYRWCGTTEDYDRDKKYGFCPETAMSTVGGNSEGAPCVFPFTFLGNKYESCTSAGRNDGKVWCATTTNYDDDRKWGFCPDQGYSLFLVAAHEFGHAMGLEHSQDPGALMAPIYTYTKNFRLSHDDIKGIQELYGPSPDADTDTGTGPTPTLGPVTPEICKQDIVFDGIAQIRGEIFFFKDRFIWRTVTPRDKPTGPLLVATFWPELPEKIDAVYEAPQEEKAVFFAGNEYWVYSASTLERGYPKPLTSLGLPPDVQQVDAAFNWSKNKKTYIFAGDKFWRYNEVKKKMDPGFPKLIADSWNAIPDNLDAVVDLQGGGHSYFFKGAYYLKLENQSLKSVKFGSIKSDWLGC

Turning to `Nc1cc(Cl)c2cccnc2c1O`, in data set [1], the inhibition result was “Dose-Dependent Effect”. In addition, the inhibition result in data set [2] was “Active”. The compound further showed a pIC50 in data set [3] of 4.15.

`CCCC(C)C1(CC)C(=O)NC(=O)NC1=O` (stereo unspecified): in data set [4], the inhibition is greater than 85%.

As to `Oc1c(Cl)cc(Cl)c2cccnc12` [CHLOROXINE], the viability at 4 h, up to 100 µM in [5] was greater than 95%. Also, the inhibition result in data set [6] and in [9] was “inactive” throughout. For the same compound, the inhibition entry in data set [4] and in [2] was “Active” throughout. Moreover, the pKd in [7] is 5.62. Also, the pIC50 in data set [3] is 4.59; in data set [8], 4.80; against Collagenase 3 [10], 4.71.

As for `Oc1c(I)cc(Cl)c2cccnc12` [CLIOQUINOL], the viability at 4 h, up to 100 µM in [5] was greater than 95%. In addition, the inhibition entry (in data set [6]; at Collagenase 3 [12]; in data set [14]; in data set [9]) was “inactive” in each case. The inhibition in [11] was less than 5%; in data set [4] it was 83%; in data set [13], less than 5%; against Collagenase 3 [15], less than 5%; in [16], less than 5%. The pKd in data set [7] is 5.92. Also, the inhibition entry in [2] was “Active”. Further, the pIC50 in data set [3] is 4.57.

(Values after ChEMBL document CHEMBL5257103, “Identification of small molecule inhibitors against MMP-14 via High-Throughput screening” (Bioorg Med Chem, 2023).)
